The source made the active and inactive calls. No cut-off for these calls is given here.
Tests used:
Mu-type opioid receptor [1] = target: T1, Mu-type opioid receptor (Homo sapiens, UniProt P35372); test: Agonist activity at human MOP expressed in HEK293 cells coexpressing GloSensor-20F assessed as inhibition of forskolin-induced cAMP accumulation; type: functional, cell-based
Mu-type opioid receptor [2] = target: T1, Mu-type opioid receptor; test: Agonist activity at human MOP expressed in HEK293 cells coexpressing GloSensor-20F assessed as inhibition of forskolin-induced cAMP accumulation relative to control; type: functional, cell-based; conditions: filed as agonist
Mu-type opioid receptor [3] = target: T1, Mu-type opioid receptor; test: Agonist activity at human Rluc8-tagged MOP expressed in HEK293 cells coexpressing eYFP-tagged beta-arrestin-2 assessed as beta-arrestin-2 recruitment incubated for 5 mins by luminometer analysis; type: functional, cell-based; conditions: read-out: EC50
Mu-type opioid receptor [4] = target: T1, Mu-type opioid receptor; test: Agonist activity at human Rluc8-tagged MOP expressed in HEK293 cells coexpressing eYFP-tagged beta-arrestin-2 assessed as beta-arrestin-2 recruitment incubated for 5 mins by luminometer analysis relative to control; type: functional, cell-based
[5] = Induction of naltrexone-precipitated withdrawal syndrome in sc dosed C57BL/6N mouse assessed as diarrhea administered for 8 days followed by naltrexone addition on day 9 after 2 hrs post last dose and measured after 30 mins; type: toxicity, organism-based; conditions: in vivo, 216.5 h, time 12990 min
[6] = target: T2, Neuropeptide FF receptor 1 (Homo sapiens, UniProt Q9GZQ6); test: Displacement of [125I]-1DMeNPFF from human NPFFR1 expressed in CHO cell membrane at 0.5 uM incubated for 1 hr by Topcount counting method relative to control; type: cell membranes
[7] = target: T2, Neuropeptide FF receptor 1; test: Antagonist activity at human NPFFR1 expressed in CHO cell membrane assessed as inhibition of NPVF induced cAMP response at 5 uM incubated for 1 hr by Topcount counting method relative to control; type: functional, cell membranes; design: scale not given: the % may be the effect or the level left
[8] = target: T3, Neuropeptide FF receptor 2 (Homo sapiens, UniProt Q9Y5X5); test: Displacement of [125I]-1DMeNPFF from human NPFFR2 expressed in CHO cell membrane at 0.05 uM incubated for 1 hr by Topcount counting method relative to control; type: cell membranes; conditions: filed as antagonist
[9] = target: T3, Neuropeptide FF receptor 2; test: Antagonist activity at human NPFFR2 expressed in CHO cell membrane assessed as inhibition of NPVF induced cAMP response at 5 uM incubated for 1 hr by Topcount counting method relative to control; type: functional, cell membranes; design: scale not given: the % may be the effect or the level left; conditions: filed as antagonist
[10] = target: T2, Neuropeptide FF receptor 1; test: Displacement of [125I]-1DMeNPFF from human NPFFR1 expressed in CHO cell membrane incubated for 1 hr by Topcount counting method; type: cell membranes
[11] = target: T2, Neuropeptide FF receptor 1; test: Antagonist potency at human NPFFR1 expressed in CHO cell membrane assessed as inhibition of NPVF induced cAMP response incubated for 1 hr by Topcount counting method; type: functional, cell membranes; conditions: read-out: pA2 (converted)
[12] = target: T3, Neuropeptide FF receptor 2; test: Displacement of [125I]-1DMeNPFF from human NPFFR2 expressed in CHO cell membrane incubated for 1 hr by Topcount counting method; type: cell membranes
[13] = target: T3, Neuropeptide FF receptor 2; test: Antagonist potency at human NPFFR2 expressed in CHO cell membrane assessed as inhibition of NPVF induced cAMP response incubated for 1 hr by Topcount counting method; type: functional, cell membranes; conditions: read-out: pA2 (converted)
[14] = target: Delta-type opioid receptor (Homo sapiens) (UniProt P41143); test: Agonist activity at human DOP expressed in HEK293 cells assessed as inhibition of forskolin-induced cAMP accumulation; type: functional, cell-based; conditions: filed as agonist
[15] = target: T4, Kappa-type opioid receptor (Homo sapiens, UniProt P41145); test: Partial agonist activity at human KOR expressed in HEK293 cells assessed as forskolin-induced cAMP accumulation in presence of IBMX; type: functional, cell-based; conditions: filed as partial agonist
[16] = target: Nociceptin receptor (Homo sapiens) (UniProt P41146); test: Antagonist activity at human NOR expressed in HEK293 cells assessed as forskolin-induced cAMP accumulation in presence of IBMX; type: functional, cell-based; conditions: filed as antagonist
[17] = target: T5, Prolactin-releasing peptide receptor (Homo sapiens) (UniProt P49683); test: Agonist activity at human GPR10 expressed in CHO cells assessed as intracellular calcium release upto 10 uM by Fluo-4 AM dye based calcium mobilization assay; type: functional, cell-based
T5 sequence (whole entry): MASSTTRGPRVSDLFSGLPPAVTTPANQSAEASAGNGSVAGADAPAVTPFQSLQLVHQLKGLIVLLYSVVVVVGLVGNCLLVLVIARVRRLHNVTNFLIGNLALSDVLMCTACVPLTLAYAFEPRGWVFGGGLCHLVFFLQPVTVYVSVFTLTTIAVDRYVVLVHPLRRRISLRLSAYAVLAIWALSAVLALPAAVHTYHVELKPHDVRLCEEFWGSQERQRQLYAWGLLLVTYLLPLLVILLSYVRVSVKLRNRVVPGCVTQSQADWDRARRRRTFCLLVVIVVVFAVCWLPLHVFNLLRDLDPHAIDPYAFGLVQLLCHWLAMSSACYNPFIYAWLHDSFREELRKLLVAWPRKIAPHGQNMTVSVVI

[18] = target: KiSS-1 receptor (Homo sapiens) (UniProt Q969F8); test: Agonist activity at human GPR54 expressed in CHO cells assessed as intracellular calcium release upto 10 uM by Fluo-4 AM dye based calcium mobilization assay; type: functional, cell-based
[19] = target: T6, Pyroglutamylated RF-amide peptide receptor (Homo sapiens) (UniProt Q96P65); test: Agonist activity at human GPR103 expressed in CHO cells assessed as intracellular calcium release upto 10 uM by Fluo-4 AM dye based calcium mobilization assay; type: functional, cell-based
T6 sequence (whole entry): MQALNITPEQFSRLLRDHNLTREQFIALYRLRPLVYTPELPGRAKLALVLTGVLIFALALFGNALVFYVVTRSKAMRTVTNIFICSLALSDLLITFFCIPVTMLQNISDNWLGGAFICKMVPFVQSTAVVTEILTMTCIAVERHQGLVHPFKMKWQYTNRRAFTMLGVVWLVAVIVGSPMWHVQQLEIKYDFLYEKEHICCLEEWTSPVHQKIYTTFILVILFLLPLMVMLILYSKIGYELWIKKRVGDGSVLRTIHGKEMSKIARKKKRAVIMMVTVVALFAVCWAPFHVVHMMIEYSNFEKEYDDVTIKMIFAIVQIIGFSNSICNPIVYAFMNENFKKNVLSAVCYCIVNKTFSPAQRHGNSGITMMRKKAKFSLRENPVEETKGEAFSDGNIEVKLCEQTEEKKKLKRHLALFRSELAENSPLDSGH

[20] = target: T5, Prolactin-releasing peptide receptor (Homo sapiens); test: Antagonist activity at human GPR10 expressed in CHO cells assessed as intracellular calcium release upto 10 uM by Fluo-4 AM dye based calcium mobilization assay; type: functional, cell-based
[21] = target: KiSS-1 receptor (Homo sapiens) (UniProt Q969F8); test: Antagonist activity at human GPR54 expressed in CHO cells assessed as intracellular calcium release upto 10 uM by Fluo-4 AM dye based calcium mobilization assay; type: functional, cell-based
[22] = target: T6, Pyroglutamylated RF-amide peptide receptor (Homo sapiens); test: Antagonist activity at human GPR103 expressed in CHO cells assessed as intracellular calcium release upto 10 uM by Fluo-4 AM dye based calcium mobilization assay; type: functional, cell-based
[23] = Cmax in mouse at 10 mg/kg, sc measured upto 24 hrs by LC-MS/MS analysis; type: ADME, organism-based; conditions: in vivo
[24] = Tmax in mouse at 10 mg/kg, sc measured upto 24 hrs by LC-MS/MS analysis; type: ADME, organism-based; conditions: in vivo
[25] = Half life in mouse at 10 mg/kg, sc measured upto 24 hrs by LC-MS/MS analysis; type: ADME, organism-based; conditions: in vivo
[26] = Drug concentration in mouse plasma at 10 mg/kg, sc measured after 2 hrs by LC-MS/MS analysis; type: ADME, organism-based
Mus musculus [27] = test: Antinociceptive activity in mouse at 2.5 to 10 mg/kg, sc measured after 6 hrs by tail immersion test; type: functional, organism-based; conditions: dose 2.5-10 mg/kg
Mus musculus [28] = test: Antinociceptive activity in mouse at 2.5 to 10 mg/kg, sc measured after 24 hrs by tail immersion test; type: functional, organism-based; conditions: dose 2.5-10 mg/kg
Mus musculus [29] = test: Antinociceptive activity in mouse at 4.2 umol/kg, sc administered chronically and measured on day 1; type: functional, organism-based; conditions: dose 4.2 µmol/kg
Mus musculus [30] = test: Antinociceptive activity in mouse at 4.2 umol/kg, sc administered chronically and measured on day 8; type: functional, organism-based; conditions: dose 4.2 µmol/kg
Mus musculus [31] = test: Antinociceptive activity in mouse at 4.2 umol/kg, sc administered daily and measured on day 1 and 8; type: functional, organism-based; conditions: dose 4.2 µmol/kg
[32] = Induction of naltrexone-precipitated withdrawal syndrome in sc dosed C57BL/6N mouse assessed as paw tremor administered for 8 days followed by naltrexone addition on day 9 after 2 hrs post last dose and measured after 30 mins; type: toxicity, organism-based; conditions: in vivo, 216.5 h, time 12990 min
[33] = Induction of naltrexone-precipitated withdrawal syndrome in sc dosed C57BL/6N mouse assessed as wet dog shake counts administered for 8 days followed by naltrexone addition on day 9 after 2 hrs post last dose and measured after 30 mins; type: toxicity, organism-based; conditions: in vivo, 216.5 h, time 12990 min
[34] = Induction of naltrexone-precipitated withdrawal syndrome in sc dosed C57BL/6N mouse assessed as high jumping score administered for 8 days followed by naltrexone addition on day 9 after 2 hrs post last dose and measured after 30 mins; type: toxicity, organism-based; conditions: in vivo, 216.5 h, time 12990 min
[35] = Induction of motor coordination impairment in C57BL/6 mouse at 10.5 mg/kg, sc by rotarod assay; type: toxicity, organism-based; conditions: in vivo
[36] = Toxicity in C57BL/6N mouse assessed as induction of respiratory depression by measuring decrease in pulmonary rate at 3.2 to 31.8 mg/kg, sc by plethysmography; type: organism-based; conditions: in vivo, dose 3.2-31.8 mg/kg
[37] = target: T4, Kappa-type opioid receptor; test: Antagonist activity at human KOR expressed in HEK293 cells assessed as forskolin-induced cAMP accumulation in presence of IBMX; type: functional, cell-based; conditions: read-out: pA2 (converted)
[38] = Induction of motor coordination impairment in C57BL/6 mouse at 12 mg/kg, sc by rotarod assay; type: toxicity, organism-based; conditions: in vivo
[39] = Toxicity in C57BL/6N mouse assessed as induction of respiratory depression by measuring decrease in pulmonary rate at 4 to 36 mg/kg, sc by plethysmography; type: organism-based; conditions: in vivo, dose 4-36 mg/kg

T3 sequence (Q9Y5X5 whole entry): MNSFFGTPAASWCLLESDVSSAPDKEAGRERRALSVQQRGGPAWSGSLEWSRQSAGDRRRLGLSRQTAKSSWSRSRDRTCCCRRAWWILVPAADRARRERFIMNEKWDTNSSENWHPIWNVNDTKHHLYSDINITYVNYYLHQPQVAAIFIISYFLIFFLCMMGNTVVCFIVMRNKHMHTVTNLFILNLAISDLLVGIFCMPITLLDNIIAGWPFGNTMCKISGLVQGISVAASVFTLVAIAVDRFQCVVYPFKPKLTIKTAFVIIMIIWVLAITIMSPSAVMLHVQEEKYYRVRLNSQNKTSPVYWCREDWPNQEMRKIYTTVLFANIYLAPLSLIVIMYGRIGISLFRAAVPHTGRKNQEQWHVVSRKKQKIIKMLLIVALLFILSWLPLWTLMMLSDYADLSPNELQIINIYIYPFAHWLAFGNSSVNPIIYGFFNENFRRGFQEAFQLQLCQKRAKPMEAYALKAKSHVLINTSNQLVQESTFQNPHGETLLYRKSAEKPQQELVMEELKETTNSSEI
T1 sequence (P35372 whole entry): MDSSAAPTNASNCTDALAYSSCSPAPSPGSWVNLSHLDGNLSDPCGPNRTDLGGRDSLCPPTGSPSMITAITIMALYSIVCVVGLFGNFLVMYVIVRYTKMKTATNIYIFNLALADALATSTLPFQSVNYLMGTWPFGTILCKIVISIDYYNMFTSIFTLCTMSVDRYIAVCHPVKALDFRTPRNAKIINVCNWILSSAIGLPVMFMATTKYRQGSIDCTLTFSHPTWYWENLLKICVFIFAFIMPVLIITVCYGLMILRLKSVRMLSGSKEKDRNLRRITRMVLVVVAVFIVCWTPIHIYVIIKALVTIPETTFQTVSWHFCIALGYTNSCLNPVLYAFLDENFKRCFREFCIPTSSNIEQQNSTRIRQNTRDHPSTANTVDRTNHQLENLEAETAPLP
T2 sequence (Q9GZQ6 whole entry): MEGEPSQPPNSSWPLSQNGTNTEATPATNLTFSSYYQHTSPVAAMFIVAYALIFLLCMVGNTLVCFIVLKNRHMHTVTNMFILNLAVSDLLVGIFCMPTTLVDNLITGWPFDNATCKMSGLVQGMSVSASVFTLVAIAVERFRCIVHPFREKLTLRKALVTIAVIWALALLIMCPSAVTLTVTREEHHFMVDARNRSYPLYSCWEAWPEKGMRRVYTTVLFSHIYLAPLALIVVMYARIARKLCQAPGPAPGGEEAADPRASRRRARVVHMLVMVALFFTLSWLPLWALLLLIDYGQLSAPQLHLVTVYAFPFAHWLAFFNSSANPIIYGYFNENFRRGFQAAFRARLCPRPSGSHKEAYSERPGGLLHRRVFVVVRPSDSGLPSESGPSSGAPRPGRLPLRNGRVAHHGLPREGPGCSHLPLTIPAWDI
Sequence of KiSS-1 receptor (Homo sapiens) (Q969F8 whole entry): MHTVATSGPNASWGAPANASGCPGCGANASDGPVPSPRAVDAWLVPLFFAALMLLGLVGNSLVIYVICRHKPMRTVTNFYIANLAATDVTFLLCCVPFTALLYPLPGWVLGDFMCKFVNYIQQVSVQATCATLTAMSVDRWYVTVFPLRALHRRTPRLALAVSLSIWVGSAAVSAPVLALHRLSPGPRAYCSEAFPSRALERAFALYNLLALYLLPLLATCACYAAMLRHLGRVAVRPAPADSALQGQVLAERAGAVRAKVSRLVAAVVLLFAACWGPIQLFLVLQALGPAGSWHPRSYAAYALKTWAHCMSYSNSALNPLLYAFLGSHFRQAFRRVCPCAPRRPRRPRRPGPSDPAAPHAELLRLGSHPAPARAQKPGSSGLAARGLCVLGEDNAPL
T4 sequence (P41145 whole entry): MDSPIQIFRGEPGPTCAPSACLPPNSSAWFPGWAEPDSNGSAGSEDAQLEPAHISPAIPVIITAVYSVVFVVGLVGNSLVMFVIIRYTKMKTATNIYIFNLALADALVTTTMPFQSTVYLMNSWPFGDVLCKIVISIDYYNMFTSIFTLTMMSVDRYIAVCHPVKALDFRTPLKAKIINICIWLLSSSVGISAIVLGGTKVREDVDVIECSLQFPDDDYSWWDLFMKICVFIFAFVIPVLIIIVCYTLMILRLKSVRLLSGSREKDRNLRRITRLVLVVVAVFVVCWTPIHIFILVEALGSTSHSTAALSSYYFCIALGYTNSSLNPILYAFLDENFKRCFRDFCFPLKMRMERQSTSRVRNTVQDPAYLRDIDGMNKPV
Sequence of Nociceptin receptor (Homo sapiens) (P41146 whole entry): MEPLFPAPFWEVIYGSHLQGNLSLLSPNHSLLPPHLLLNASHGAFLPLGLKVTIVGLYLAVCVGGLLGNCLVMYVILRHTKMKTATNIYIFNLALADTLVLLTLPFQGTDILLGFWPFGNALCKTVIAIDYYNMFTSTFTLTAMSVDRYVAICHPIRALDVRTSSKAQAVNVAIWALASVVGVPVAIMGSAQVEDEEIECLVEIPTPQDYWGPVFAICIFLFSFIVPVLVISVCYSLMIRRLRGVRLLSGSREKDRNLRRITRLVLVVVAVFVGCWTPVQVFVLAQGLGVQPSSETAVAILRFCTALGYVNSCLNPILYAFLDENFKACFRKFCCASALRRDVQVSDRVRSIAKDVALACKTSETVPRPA
Sequence of Delta-type opioid receptor (Homo sapiens) (P41143 whole entry): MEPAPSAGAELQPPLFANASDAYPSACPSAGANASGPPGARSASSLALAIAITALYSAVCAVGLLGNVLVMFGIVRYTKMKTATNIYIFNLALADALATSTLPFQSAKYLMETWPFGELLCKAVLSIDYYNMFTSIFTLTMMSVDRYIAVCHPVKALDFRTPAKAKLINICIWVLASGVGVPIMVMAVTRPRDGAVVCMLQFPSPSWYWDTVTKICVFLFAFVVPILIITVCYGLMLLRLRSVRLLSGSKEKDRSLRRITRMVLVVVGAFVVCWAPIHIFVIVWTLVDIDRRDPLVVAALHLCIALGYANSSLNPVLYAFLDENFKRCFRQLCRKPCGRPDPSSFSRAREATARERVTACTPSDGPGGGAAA

Row | SMILES | EC50 (Mu-type opioid receptor [1]) [nM] | Emax (Mu-type opioid receptor [2]) [%] | EC50 (Mu-type opioid receptor [3]) [nM] | Emax (Mu-type opioid receptor [4]) [%] | Activity [5] | Activity [8] [%] | Activity [9] [%] | Ki [10] [nM] | Kb [11] [nM] | Ki [12] [nM] | Kb [13] [nM] | Activity [14] | Activity [16] | Activity [17] | Activity [18] | Activity [19] | Activity [20] | Activity [21] | Activity [22] | Cmax [23] [nM] | other results
1 | Cc1cc(O)cc(C)c1C[C@H](N)C(=O)N(C)[C@H](C)C(=O)N[C@H]1Cc2c(ccc3ccccc23)CN(CCC(=O)N[C@@H](CCCN2CCC(Cc3ccccc3)CC2)C(=O)N[C@@H](Cc2ccccc2)C(N)=O)C1=O | 4.5 | 75 | > 4000 | 24 | Non-Toxic | 57 | 83 | 1310 | 2450 | 32 | 45.7 | Active | Active | inactive | inactive | inactive | inactive | inactive | inactive | 805 | Activity [6]: 19%; Activity [7]: 26%; Activity [15]: Active; Tmax [24]: 2.33 h; half-life [25]: 3.3 h; concentration at 2 h [26]: 837 nM; Activity (Mus musculus [27]): Active; Activity (Mus musculus [28]): Active; Activity (Mus musculus [29]): Active; Activity (Mus musculus [30]): inactive; Activity (Mus musculus [31]): Active; Activity [32]: Non-Toxic; Activity [33]: Non-Toxic; Activity [34]: Non-Toxic; Activity [35]: Non-Toxic; Activity [36]: Non-Toxic
2 | Cc1cc(O)cc(C)c1C[C@H](NC(=N)N)C(=O)N[C@H](CCCNC(=N)N)C(=O)N[C@H]1Cc2ccccc2CN(CCC(=O)N[C@@H](CCCN2CCC(Cc3ccccc3)CC2)C(=O)N[C@@H](Cc2ccccc2)C(N)=O)C1=O | 9.9 | 66 | 119 | 15 | Non-Toxic | 91 | 71 | 75 | 240 | 4.7 | 110 | Active | Active | inactive | inactive | inactive | inactive | inactive | inactive | 887 | Activity ([6]; filed as antagonist): 93%; Activity ([7]; filed as antagonist): 65%; Kb [37]: 0.331 nM; Tmax [24]: 1.67 h; half-life [25]: 3.1 h; concentration at 2 h [26]: 593 nM; Activity (Mus musculus [27]): Active; Activity (Mus musculus [29]): Active; Activity (Mus musculus [30]): inactive; Activity (Mus musculus [31]): Active; Activity [32]: Non-Toxic; Activity [33]: Non-Toxic; Activity [34]: Toxic; Activity [38]: Non-Toxic; Activity [39]: Non-Toxic

Source: ChEMBL document CHEMBL5506024, “Multitarget μ-Opioid Receptor Agonists─Neuropeptide FF Receptor Antagonists Induce Potent Antinociception with Reduced Adverse Side Effects” (J Med Chem, 2024)
